Data reported in PMC10004090, “Novel Arylsulfonylhydrazones as Breast Anticancer Agents Discovered by Quantitative Structure-Activity Relationships” (Molecules, 2023).
Like-named read-outs stand apart in the source and are kept apart here.

Legend:
[1] = system: MCF-7; settings: ligand efficiency LE = pIC50/N; training set 3a–o and cisplatin; cited from earlier work
[2] = system: Neuro-2a; experiment: MTT cytotoxicity test on Neuro-2a cells (healthy-cell control); assay type: cell-based, mouse; settings: for IC50: MTT, 72 h, healthy cells
Procedure: (§1) The anticancer activity of the novel arylsulfonylhydrazones was tested on two BC cell lines: MCF-7 and MDA-MB-231. The cell line MCF-7 originates from human breast adenocarcinoma and expresses estrogen receptor alpha (ER-α), while the cell line MDA-MB-231 represents TNBC adenocarcinoma and lacks any receptor [40]. To test the cytotoxicity of the compounds on healthy cells, they were incubated within Neuro-2a cells, which are mouse neuroblasts isolated from brain tissue.
(§2) The in vitro antineoplastic activity of the newly synthesized compounds was evaluated against human BC cell lines of different molecular types: the triple negative MDA-MB-231 cell line and the ER/PR/Her2 positive variant MCF-7, as well as against mouse neuroblast cells, Neuro-2a. All cell lines were purchased from the German Collection of Microorganisms and Cell Cultures (DSMZ GmbH, Braunschweig, Germany) and cultivated according to supplier’s instructions. Cells were cultured in an RPMI 1640 growth medium supplemented with 10% fetal bovine serum (FBS) and 5% L-glutamine, and incubated under standard conditions of 37 °C and 5% humidified CO2 atmosphere.
(§3) The cytostatic activity of the experimental compounds was investigated using an established methodology for assessing cell viability known as the Mosmann MTT method. The assay is colorimetric and measures the activity of mitochondrial enzymes by reducing the yellow dye MTT (3-(4,5-dimethylthiazol-2-yl)-2,5-diphenyltetrazolium bromide) to violet formazan crystals. Exponential-phased cells were harvested and seeded (100 μL/well) in 96-well plates at 1.5 × 10^5 density and incubated for 24 h. Cell cultures were treated and exposed to various concentrations (200–6.25 μM) of the tested compounds for 72 h, following which cell survival was quantified as percentage (%) relative to untreated control (100% cell viability).
(§4) Experimental data were processed using nonlinear regression analysis in the GraphPad Prism® software program. Semi-logarithmic “dose-response” curves were plotted and half-inhibitory concentrations (IC50) of the screened compounds were calculated for each of the tested tumor cell lines.

[3] = system: MDA-MB-231; experiment: MTT cytotoxicity test on MDA-MB-231 cell line; assay type: cell-based, human; settings: for LE MDA-MB-231 Exp: LE = pIC50/N from MTT IC50, 72 h; for IC50: MTT, 72 h; for MDA-MB-231 SI: selectivity index = IC50 on Neuro-2a/IC50 on MDA-MB-231
Procedure: as §1, §2, §3, §4

[4] = system: MCF-7; experiment: MTT cytotoxicity test on MCF-7 cell line; assay type: cell-based, human; settings: for IC50: MTT, 72 h; for MCF-7 SI: selectivity index = IC50 on Neuro-2a/IC50 on MCF-7
Procedure: as §1, §2, §3, §4

[5] = system: MCF-7; settings: ligand efficiency LE = pIC50/N; training set 5a–k and doxorubicin; cited from earlier work
[6] = system: MDA-MB-468; settings: ligand efficiency LE = pIC50/N; training set 5a–k and doxorubicin; cited from earlier work

In the case of `COc1cc(/C=N\NS(=O)(=O)c2ccc(C)cc2)ccc1F` [Compound 3f], the “LE MCF-7” value [1] is listed as 0.207.

For “N’-[(E)-(5-methoxy-1-methyl-1H-indol-3-yl)methylidene]benzenesulfonohydrazide [Compound 1i]”, the “Neuro-2a LE” value ([2]; LE = pIC50/N) was 0.161, the IC50 [2] was 135 ± 10.9 µM and the “LE MDA-MB-231 Exp” value [3] was 0.178. For the same molecule, the IC50 [3] was 54.8 ± 7.4 µM, the “MDA-MB-231 SI” value [3] was 2.462 and the “LE MCF-7 Exp” value ([4]; LE = pIC50/N from MTT IC50, 72 h) was 0.158. The IC50 [4] was 165 ± 8.6 µM and the “MCF-7 SI” value [4] was 0.818.

In the case of `COc1cccc2c1C(=O)c1c(O)c3c(c(O)c1C2=O)C[C@@](O)(C(=O)CO)C[C@@H]3O[C@H]1C[C@H](N)[C@H](O)[C@H](C)O1` [Doxorubicin], the “LE MCF-7” value [5] is listed as 0.185 and the “LE MDA-MB-468” value [6] is listed as 0.182.

For `COc1ccc(/C=N/NS(=O)(=O)c2ccccc2)cc1OC` [Compound 1f, N’-[(E)-(3,4-dimethoxyphenyl)methylidene]benzenesulfonohydrazide], the IC50 ([3]; Homo sapiens, MDA-MB-231) was 266 ± 19.7 µM, the “MDA-MB-231 SI” value [3] was 0.410 and the IC50 ([4]; Homo sapiens, MCF7) was 5.97 ± 2.1 µM.

For `O=S(=O)(N/N=C\c1cn(CCN2CCOCC2)c2ccccc12)c1ccc(F)cc1` [Compound 5d], the “LE MCF-7” value [5] is given as 0.150 and the “LE MDA-MB-468” value [6] is given as 0.161.

For `O=[N+]([O-])c1ccc(S(=O)(=O)N/N=C\c2cn(CCN3CCOCC3)c3ccccc23)cc1` [Compound 5e], the “LE MCF-7” value [5] is listed as 0.128 and the “LE MDA-MB-468” value [6] is listed as 0.138.

In the case of `N.N.[Cl][Pt][Cl]` [Cisplatin, reference compound], the “LE MCF-7” value [1] is given as 0.931, the “LE MDA-MB-231 Exp” value [3] is given as 0.840 and the IC50 [3] is given as 63.4 ± 7.2 µM. It also gave an IC50 [4] of 50.3 ± 6.5 µM.

With `COc1ccc2[nH]cc(/C=N\NS(=O)(=O)c3ccccc3)c2c1` [Compound 1a, N’-[(Z)-(5-methoxy-1H-indol-3-yl)methylidene]benzenesulfonohydrazide] the IC50 ([2]; Mus musculus, N2a) was 5.2 ± 0.9 µM, the IC50 ([3]; Homo sapiens, MDA-MB-231, 72 h) was 3.1 ± 0.7 µM and the IC50 ([4]; Homo sapiens, MCF7, 72 h) was < 1 µM. For the same molecule, the IC50 [4] was 0.6 ± 0.2 µM.

In the case of `O=S(=O)(N/N=C\c1cn(CCN2CCOCC2)c2ccccc12)c1ccccc1` [Compound 5c], the “LE MCF-7” value [5] is given as 0.143 and the “LE MDA-MB-468” value [6] is given as 0.149.

For `COc1ccc(Br)cc1/C=N\NS(=O)(=O)c1ccc(C)cc1` [Compound 3i], the “LE MCF-7” value [1] is listed as 0.170.

For `Cc1ccc(S(=O)(=O)N/N=C\c2c(C)cccc2Cl)cc1` [Compound 3l], the “LE MCF-7” value [1] is listed as 0.180.

In the case of `Cc1ccc(S(=O)(=O)N/N=C\c2ccccc2OC(F)(F)F)cc1` [Compound 3o], the “LE MCF-7” value [1] is given as 0.166.

With `COc1ccc2[nH]cc(/C=N/NS(=O)(=O)c3ccc(C)cc3)c2c1` [Compound 1b, N’-[(E)-(5-methoxy-1H-indol-3-yl)methylidene]-4-methylbenzenesulfonohydrazide] the melting point was 201 to 202 °C, the IC50 ([2]; Mus musculus, N2a) was 4 ± 0.4 µM and the IC50 ([3]; Homo sapiens, MDA-MB-231, 72 h) was 8.5 ± 2.1 µM. The IC50 ([4]; Homo sapiens, MCF7, 72 h) was < 1 µM, the IC50 [4] was 0.8 ± 0.3 µM and the “MCF-7 SI” value [4] was 5.000.

In the case of `Cc1ccc(S(=O)(=O)N/N=C\c2cn(CCN3CCOCC3)c3ccccc23)cc1` [Compound 5b], the “LE MCF-7” value [5] is listed as 0.140 and the “LE MDA-MB-468” value [6] is listed as 0.146.

In the case of `Cc1ccc(S(=O)(=O)N/N=C\c2cccn2C)cc1` [Compound 3n], the “LE MCF-7” value [1] is given as 0.207.

In the case of `Cc1ccc(S(=O)(=O)N/N=C\c2cccc(C(F)(F)F)c2Cl)cc1` [Compound 3e], the “LE MCF-7” value [1] is listed as 0.148.

In the case of `Cc1ccc(S(=O)(=O)N/N=C\c2ccc(F)cc2C(F)(F)F)cc1` [Compound 3j], the “LE MCF-7” value [1] is given as 0.148.

In the case of `Cc1ccc(S(=O)(=O)N/N=C\c2ccc(F)c(Oc3ccccc3)c2)cc1` [Compound 3d], the “LE MCF-7” value [1] is given as 0.121.

For `COc1ccc(S(=O)(=O)N/N=C\c2cn(CCN3CCOCC3)c3ccccc23)cc1` [Compound 5a], the “LE MCF-7” value [5] is given as 0.136 and the “LE MDA-MB-468” value [6] is given as 0.141.

For `COc1cccc(/C=N\NS(=O)(=O)c2ccc(C)cc2)c1Cl` [Compound 3k], the “LE MCF-7” value [1] is listed as 0.197.

In the case of `Cc1ccc(S(=O)(=O)N/N=C\c2cccc(Br)n2)cc1` [Compound 3m], the “LE MCF-7” value [1] is listed as 0.176.

For `Cc1ccc(S(=O)(=O)N/N=C\c2cc(-c3ccccc3)cs2)cc1` [Compound 3c], the “LE MCF-7” value [1] is given as 0.189.

In the case of `Cc1ccc(S(=O)(=O)N/N=C\c2c[nH]nc2-c2ccccc2)cc1` [Compound 3h], the “LE MCF-7” value [1] is listed as 0.141.

For `Cc1ccc(S(=O)(=O)N/N=C\c2ccc3c(c2)OC(F)(F)O3)cc1` [Compound 3a], the “LE MCF-7” value [1] is listed as 0.174.

With `CC(=O)n1cc(/C=N/NS(=O)(=O)c2ccc(C)cc2)c2ccccc21` [Compound 1d, N’-[(E)-(1-acetyl-1H-indol-3-yl)methylidene]-4-methylbenzenesulfonohydrazide] the IC50 ([2]; Mus musculus, N2a) was 82.8 ± 8.1 µM, the IC50 ([3]; Homo sapiens, MDA-MB-231, 72 h) was 65.1 ± 6.1 µM and the “MDA-MB-231 SI” value [3] was 1.272. The IC50 ([4]; Homo sapiens, MCF7, 72 h) was 1.8 ± 0.6 µM and the “MCF-7 SI” value [4] was 46.

For `COc1ccc(/C=N\NS(=O)(=O)c2ccc(C)cc2)cc1[N+](=O)[O-]` [Compound 3g], the “LE MCF-7” value [1] is given as 0.143.

For `O=S(=O)(N/N=C/c1c[nH]c2ccc(Cl)cc12)c1ccccc1` [Compound 1e, N’-[(E)-(5-chloro-1H-indol-3-yl)methylidene]benzenesulfonohydrazide], the IC50 ([2]; Mus musculus, N2a) was 6.5 ± 1.1 µM, the IC50 ([3]; Homo sapiens, MDA-MB-231, 72 h) was < 1 µM and the IC50 [3] was 0.9 ± 0.2 µM. For the same molecule, the IC50 ([4]; Homo sapiens, MCF7, 72 h) was < 1 µM, the IC50 [4] was 0.5 ± 0.1 µM and the “MCF-7 SI” value [4] was 13.

For `Cc1ccc(S(=O)(=O)N/N=C\c2cc(Br)cs2)cc1` [Compound 3b], the “LE MCF-7” value [1] is listed as 0.203.

`CC(=O)n1cc(/C=N/NS(=O)(=O)c2ccccc2)c2ccccc21` [Compound 1c, N’-[(E)-(1-acetyl-1H-indol-3-yl)methylidene]benzenesulfonohydrazide] showed a melting point of 209 to 210 °C, an IC50 ([2]; Mus musculus, N2a) of 36.2 ± 4.3 µM and an IC50 ([3]; Homo sapiens, MDA-MB-231, 72 h) of 19.2 ± 3.4 µM. The IC50 ([4]; Homo sapiens, MCF7, 72 h) was < 1 µM and the IC50 [4] was 0.9 ± 0.4 µM.

For `O=S(=O)(N/N=C\c1cn(CCN2CCOCC2)c2ccccc12)c1ccc(Cl)cc1` [Compound 5f], the “LE MCF-7” value [5] is listed as 0.163 and the “LE MDA-MB-468” value [6] is listed as 0.170.

In the case of `O=S(=O)(N/N=C/c1ccc(Cl)cc1)c1ccccc1` [Compound 1h, N’-[(E)-(4-chlorophenyl)methylidene]benzenesulfonohydrazide], the IC50 ([3]; Homo sapiens, MDA-MB-231) is reported as 63.1 ± 6.9 µM, the “MDA-MB-231 SI” value [3] is reported as 1.861 and the IC50 ([4]; Homo sapiens, MCF7) is reported as 157 ± 11.2 µM. The “MCF-7 SI” value [4] was 0.747.

With `COc1ccc(/C=N/NS(=O)(=O)c2ccc(C)cc2)cc1OC` [Compound 1g, N’-[(E)-(3,4-dimethoxyphenyl)methylidene]-4-methylbenzenesulfonohydrazide] the IC50 ([3]; Homo sapiens, MDA-MB-231) was > 500 µM, the IC50 ([4]; Homo sapiens, MCF7) was 56.1 ± 8.4 µM and the “MCF-7 SI” value [4] was 2.415.

For `O=S(=O)(N/N=C\c1cn(CCN2CCOCC2)c2ccccc12)c1ccc2ccccc2c1` [Compound 5h], the “LE MCF-7” value [5] is given as 0.116 and the “LE MDA-MB-468” value [6] is given as 0.110.
